The target of experiment [1] is Dual specificity mitogen-activated protein kinase kinase 1 (Homo sapiens) (UniProt Q02750). In words: Inhibition of human MEK1 at 1.82 nM by HotSpot assay relative to control.
Experiment [2] concerns the target MAP kinase-interacting serine/threonine-protein kinase 1 (Homo sapiens) (UniProt Q9BUB5). Nature of the experiment: Inhibition of human MNK1 at 1.82 nM by HotSpot assay relative to control.
The target in experiment [3] is Serine/threonine-protein kinase N1 (Homo sapiens) (UniProt Q16512). Nature of the experiment: Inhibition of human PRK1 at 1.82 nM by HotSpot assay relative to control.
Chain of Serine/threonine-protein kinase N1 (Homo sapiens) (Q16512 2-942 limits assumed): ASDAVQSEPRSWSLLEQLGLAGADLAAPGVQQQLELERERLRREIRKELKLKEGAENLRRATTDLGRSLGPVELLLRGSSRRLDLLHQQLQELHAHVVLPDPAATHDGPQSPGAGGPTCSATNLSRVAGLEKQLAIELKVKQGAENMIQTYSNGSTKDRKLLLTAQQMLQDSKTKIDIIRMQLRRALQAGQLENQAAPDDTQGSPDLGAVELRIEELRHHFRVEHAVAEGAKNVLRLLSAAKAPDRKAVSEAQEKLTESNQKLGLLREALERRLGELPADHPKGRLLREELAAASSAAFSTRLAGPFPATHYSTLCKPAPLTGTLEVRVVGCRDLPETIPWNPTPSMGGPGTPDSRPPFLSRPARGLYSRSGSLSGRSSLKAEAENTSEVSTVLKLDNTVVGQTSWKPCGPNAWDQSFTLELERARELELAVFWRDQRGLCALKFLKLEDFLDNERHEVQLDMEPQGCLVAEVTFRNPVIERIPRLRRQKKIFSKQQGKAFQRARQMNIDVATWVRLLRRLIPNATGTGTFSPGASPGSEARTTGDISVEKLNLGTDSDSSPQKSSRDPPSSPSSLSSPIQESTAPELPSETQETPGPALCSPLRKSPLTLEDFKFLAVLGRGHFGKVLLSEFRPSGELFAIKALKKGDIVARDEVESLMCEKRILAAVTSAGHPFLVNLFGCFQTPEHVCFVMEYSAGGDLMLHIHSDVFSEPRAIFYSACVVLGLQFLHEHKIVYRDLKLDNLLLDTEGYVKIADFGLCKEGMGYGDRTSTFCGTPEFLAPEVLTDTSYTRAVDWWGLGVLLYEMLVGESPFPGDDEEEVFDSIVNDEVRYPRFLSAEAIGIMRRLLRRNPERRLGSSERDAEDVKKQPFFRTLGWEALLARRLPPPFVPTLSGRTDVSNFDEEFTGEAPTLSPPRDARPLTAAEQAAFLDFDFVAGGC
The target of experiment [4] is Mitogen-activated protein kinase kinase kinase 7 (Homo sapiens) (UniProt O43318). The conditions noted are these: dose 1.82 nM.
Chain of Mitogen-activated protein kinase kinase kinase 7 (Homo sapiens) (O43318 whole entry, looked up): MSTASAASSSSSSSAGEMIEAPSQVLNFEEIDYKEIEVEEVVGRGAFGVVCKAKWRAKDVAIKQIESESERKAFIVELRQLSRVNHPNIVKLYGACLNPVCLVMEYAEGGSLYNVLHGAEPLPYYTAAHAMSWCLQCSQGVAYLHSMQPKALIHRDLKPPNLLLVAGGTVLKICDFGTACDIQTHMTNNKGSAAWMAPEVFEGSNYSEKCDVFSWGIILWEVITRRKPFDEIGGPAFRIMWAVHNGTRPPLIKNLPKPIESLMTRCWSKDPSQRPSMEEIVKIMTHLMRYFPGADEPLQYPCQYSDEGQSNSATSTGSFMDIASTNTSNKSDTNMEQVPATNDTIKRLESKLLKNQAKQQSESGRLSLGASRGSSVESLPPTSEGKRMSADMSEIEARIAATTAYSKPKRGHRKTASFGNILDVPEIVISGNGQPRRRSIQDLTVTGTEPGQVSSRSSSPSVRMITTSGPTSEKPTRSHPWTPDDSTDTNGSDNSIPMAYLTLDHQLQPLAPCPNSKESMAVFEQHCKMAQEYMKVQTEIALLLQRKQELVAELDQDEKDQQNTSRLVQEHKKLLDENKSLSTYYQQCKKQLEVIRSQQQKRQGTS
Description: Inhibition of human TAK1 at 1.82 nM by HotSpot assay relative to control
Experiment [5] has as its target Vascular endothelial growth factor receptor 3 (Homo sapiens) (UniProt P35916). In words: Inhibition of human FLT4 at 18.6 nM by HotSpot assay relative to control.
In experiment [6] the target is T1, Inhibitor of nuclear factor kappa-B kinase subunit alpha (Homo sapiens) (UniProt O15111).
T1 sequence (whole entry): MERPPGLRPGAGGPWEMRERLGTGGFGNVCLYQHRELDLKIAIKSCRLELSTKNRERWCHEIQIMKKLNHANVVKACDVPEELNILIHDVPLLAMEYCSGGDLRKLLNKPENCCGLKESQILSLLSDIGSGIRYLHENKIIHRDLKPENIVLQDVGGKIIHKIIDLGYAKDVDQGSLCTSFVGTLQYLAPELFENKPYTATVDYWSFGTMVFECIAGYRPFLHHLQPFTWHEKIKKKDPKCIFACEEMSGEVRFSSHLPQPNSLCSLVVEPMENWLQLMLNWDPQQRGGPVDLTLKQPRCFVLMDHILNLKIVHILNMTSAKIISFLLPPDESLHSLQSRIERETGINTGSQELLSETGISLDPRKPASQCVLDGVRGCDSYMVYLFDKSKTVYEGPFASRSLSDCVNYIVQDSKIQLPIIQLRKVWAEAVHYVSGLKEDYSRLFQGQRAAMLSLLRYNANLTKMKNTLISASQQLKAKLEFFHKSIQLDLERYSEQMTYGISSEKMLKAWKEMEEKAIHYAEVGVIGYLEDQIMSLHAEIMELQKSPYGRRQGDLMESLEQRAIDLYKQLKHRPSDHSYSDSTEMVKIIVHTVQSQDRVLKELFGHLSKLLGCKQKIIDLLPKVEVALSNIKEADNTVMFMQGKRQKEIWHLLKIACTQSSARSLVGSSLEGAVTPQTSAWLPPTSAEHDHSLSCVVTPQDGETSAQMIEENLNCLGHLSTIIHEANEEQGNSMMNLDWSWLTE
Nature of the experiment: Inhibition of human IKKa at 18.6 nM by HotSpot assay relative to control.

Experiment [7] concerns the target T2, Tyrosine-protein kinase ITK/TSK (Homo sapiens) (UniProt Q08881).
T2 sequence (whole entry): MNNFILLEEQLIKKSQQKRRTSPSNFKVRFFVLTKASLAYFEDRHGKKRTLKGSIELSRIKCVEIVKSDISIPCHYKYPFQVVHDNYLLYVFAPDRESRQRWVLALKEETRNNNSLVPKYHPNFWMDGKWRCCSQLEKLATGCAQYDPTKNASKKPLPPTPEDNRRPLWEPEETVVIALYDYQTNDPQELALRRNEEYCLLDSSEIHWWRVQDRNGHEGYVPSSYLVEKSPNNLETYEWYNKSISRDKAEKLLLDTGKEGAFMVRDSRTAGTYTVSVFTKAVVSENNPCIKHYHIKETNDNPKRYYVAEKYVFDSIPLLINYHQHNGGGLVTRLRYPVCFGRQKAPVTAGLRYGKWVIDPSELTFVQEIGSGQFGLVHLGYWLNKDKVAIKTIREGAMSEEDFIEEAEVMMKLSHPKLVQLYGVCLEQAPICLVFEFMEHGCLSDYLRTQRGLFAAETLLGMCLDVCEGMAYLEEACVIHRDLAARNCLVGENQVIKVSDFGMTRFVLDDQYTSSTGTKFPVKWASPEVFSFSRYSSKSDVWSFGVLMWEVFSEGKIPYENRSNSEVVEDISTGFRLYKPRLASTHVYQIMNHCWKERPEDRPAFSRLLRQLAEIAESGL
Nature of the experiment: Inhibition of human ITK at 18.6 nM by HotSpot assay relative to control.

Experiment [8] has as its target Serine/threonine-protein kinase MARK2 (Homo sapiens) (UniProt Q7KZI7). In words: Inhibition of human PAR-1Ba at 18.6 nM by HotSpot assay relative to control.
Experiment [9] has as its target T3, Ephrin type-A receptor 3 (Homo sapiens) (UniProt P29320).
T3 sequence (whole entry): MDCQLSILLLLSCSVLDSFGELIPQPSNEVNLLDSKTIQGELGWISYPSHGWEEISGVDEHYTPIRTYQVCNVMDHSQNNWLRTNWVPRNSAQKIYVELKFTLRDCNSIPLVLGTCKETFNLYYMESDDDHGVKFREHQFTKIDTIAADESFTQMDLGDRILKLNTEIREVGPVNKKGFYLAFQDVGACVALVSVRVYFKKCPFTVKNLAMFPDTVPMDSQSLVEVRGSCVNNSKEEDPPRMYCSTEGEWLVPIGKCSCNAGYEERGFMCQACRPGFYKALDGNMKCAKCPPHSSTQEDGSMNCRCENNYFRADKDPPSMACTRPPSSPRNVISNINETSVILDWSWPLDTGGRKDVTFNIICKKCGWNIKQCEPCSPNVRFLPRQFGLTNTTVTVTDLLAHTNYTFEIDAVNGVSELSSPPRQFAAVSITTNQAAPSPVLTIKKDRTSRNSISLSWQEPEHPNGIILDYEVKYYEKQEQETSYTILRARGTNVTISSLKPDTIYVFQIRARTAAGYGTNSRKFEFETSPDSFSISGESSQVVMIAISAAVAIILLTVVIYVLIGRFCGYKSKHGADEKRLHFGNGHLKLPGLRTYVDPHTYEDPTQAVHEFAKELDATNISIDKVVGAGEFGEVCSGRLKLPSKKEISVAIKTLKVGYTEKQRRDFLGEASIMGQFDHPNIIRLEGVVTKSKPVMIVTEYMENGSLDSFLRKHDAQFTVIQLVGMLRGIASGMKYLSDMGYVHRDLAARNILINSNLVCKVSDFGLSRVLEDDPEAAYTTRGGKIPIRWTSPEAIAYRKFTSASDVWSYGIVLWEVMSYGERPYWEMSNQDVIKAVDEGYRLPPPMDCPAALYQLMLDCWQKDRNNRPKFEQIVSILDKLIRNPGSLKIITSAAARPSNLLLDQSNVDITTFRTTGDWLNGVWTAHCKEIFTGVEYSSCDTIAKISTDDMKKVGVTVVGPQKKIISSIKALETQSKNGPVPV
Nature of the experiment: Inhibition of human EPHA3 at 18.6 nM by HotSpot assay relative to control.

Experiment [10] deals with Mitogen-activated protein kinase 9 (Homo sapiens) (UniProt P45984). In words: Inhibition of human JNK2 at 18.6 nM by HotSpot assay relative to control.
Chain of Mitogen-activated protein kinase 9 (Homo sapiens) (P45984 whole entry, looked up): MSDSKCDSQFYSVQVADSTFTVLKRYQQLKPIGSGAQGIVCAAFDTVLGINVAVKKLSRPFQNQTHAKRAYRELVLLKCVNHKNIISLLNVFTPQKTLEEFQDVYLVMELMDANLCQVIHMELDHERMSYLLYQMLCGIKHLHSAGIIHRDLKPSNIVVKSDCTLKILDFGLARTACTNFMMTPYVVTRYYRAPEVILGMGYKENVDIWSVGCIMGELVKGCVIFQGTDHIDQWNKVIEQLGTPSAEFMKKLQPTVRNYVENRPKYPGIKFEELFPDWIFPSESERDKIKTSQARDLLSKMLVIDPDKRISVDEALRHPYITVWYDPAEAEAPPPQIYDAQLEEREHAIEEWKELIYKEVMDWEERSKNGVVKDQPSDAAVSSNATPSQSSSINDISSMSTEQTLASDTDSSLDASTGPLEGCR

Chain of Serine/threonine-protein kinase MARK2 (Homo sapiens) (Q7KZI7 whole entry): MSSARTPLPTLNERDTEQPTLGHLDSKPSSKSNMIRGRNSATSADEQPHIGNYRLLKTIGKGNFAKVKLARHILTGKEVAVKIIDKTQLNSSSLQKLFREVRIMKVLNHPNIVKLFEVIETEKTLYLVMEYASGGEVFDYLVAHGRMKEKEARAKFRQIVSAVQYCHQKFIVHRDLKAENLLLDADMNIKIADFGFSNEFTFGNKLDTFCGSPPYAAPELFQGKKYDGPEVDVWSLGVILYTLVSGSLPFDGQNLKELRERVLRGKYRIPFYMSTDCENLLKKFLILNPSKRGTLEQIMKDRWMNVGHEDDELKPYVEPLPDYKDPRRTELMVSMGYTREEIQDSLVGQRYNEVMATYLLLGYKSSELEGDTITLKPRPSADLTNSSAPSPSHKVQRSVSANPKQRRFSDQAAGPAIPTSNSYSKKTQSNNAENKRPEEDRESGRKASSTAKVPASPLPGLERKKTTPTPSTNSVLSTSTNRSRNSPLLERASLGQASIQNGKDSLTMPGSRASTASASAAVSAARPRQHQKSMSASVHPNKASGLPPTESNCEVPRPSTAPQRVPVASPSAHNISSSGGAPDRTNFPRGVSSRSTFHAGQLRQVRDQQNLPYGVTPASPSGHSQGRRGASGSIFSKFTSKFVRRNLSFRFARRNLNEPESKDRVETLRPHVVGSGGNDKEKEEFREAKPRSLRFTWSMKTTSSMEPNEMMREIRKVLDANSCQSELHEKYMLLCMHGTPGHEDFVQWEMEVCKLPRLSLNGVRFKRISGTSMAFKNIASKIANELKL
Chain of Vascular endothelial growth factor receptor 3 (Homo sapiens) (P35916 whole entry): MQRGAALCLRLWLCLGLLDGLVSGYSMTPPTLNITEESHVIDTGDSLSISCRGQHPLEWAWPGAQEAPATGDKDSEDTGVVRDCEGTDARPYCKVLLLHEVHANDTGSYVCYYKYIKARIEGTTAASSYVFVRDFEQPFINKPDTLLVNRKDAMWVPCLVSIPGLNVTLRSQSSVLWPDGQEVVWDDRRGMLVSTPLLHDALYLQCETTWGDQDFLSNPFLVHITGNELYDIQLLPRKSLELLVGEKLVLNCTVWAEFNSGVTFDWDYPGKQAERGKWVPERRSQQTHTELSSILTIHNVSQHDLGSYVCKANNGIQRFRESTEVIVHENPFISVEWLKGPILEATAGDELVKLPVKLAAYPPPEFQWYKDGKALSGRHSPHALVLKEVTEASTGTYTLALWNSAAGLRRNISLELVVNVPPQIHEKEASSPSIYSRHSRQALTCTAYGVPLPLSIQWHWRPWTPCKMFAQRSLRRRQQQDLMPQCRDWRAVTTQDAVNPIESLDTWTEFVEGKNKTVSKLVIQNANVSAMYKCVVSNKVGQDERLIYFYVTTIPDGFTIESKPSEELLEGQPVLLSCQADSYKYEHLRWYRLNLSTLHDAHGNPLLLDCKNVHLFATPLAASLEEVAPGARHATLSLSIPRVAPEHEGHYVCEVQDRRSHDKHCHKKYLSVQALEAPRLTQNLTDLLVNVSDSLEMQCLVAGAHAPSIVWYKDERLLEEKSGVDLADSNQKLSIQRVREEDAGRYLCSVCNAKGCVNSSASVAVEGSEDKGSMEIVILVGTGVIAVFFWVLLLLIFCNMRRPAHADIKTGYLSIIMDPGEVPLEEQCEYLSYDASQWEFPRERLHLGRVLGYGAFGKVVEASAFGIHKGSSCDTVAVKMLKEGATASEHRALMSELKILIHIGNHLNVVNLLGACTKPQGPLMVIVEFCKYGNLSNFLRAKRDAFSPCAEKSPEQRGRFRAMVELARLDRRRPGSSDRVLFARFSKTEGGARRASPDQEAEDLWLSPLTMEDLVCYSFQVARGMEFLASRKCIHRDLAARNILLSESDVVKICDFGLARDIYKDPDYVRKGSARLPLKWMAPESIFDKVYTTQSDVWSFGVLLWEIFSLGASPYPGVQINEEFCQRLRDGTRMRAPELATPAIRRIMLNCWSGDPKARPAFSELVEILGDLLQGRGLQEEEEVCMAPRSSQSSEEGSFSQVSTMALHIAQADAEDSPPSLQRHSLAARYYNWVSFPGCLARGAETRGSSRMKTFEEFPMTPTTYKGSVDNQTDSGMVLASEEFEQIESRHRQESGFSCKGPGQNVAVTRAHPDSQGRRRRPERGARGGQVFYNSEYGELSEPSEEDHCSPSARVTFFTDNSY
Chain of Dual specificity mitogen-activated protein kinase kinase 1 (Homo sapiens) (Q02750 whole entry): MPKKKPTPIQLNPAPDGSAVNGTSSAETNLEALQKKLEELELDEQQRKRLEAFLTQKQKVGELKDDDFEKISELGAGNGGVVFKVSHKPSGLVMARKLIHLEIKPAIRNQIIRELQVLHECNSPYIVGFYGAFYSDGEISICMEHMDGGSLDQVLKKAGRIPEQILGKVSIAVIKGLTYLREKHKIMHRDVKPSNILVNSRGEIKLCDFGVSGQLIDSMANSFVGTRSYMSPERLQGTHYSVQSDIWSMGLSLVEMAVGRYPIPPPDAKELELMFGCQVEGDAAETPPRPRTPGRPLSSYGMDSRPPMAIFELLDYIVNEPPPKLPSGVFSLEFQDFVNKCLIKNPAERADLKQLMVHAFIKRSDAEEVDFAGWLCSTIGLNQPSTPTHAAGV
Chain of MAP kinase-interacting serine/threonine-protein kinase 1 (Homo sapiens) (Q9BUB5 whole entry, looked up): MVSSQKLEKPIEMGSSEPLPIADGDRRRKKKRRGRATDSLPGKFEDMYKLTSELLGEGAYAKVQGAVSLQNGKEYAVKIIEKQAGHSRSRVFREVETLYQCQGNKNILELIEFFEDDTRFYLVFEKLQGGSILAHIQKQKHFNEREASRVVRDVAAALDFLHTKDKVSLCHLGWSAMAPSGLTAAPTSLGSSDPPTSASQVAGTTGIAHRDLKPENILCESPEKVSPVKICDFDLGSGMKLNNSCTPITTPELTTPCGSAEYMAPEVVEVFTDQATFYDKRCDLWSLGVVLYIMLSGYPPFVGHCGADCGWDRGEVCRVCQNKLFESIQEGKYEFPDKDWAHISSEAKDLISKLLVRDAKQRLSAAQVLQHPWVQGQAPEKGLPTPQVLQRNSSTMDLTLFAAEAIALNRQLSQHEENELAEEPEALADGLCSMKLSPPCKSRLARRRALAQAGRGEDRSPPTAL

As usually defined, the inhibition is the relative decrease from the control value, in per cent. `C[C@@]1(C(=O)Nc2ccc(F)nc2)CCCN1c1nc(Nc2cc(C3CC3)n[nH]2)c2cccn2n1`: the inhibition is -6.3% in experiment [1], 5.01% in experiment [2], -8.35% in [3] and 3.35% in experiment [4].

Turning to `C[C@]1(O)C[C@@H](c2nc(-c3ccc4ccc(-c5ccccc5)nc4c3)c3c(N)nccn32)C1`, the inhibition is -2.25% in [5]; 5.65% in experiment [6]; -7.85% in experiment [7]; -3.78% in [8]; 2.95% in [9]; -2.37% in [10].

These data come from ChEMBL document CHEMBL5653615 (J Biol Chem, 2013).
